EC50, CC50 and TI data for two compounds are collected here from patent publication US5962487A, “Antipicornaviral compounds and methods for their use and preparation” (Agouron Pharmaceuticals, Inc., priority 1997, dated 1999).

Bounds are passed on as bounds.

For data set [1], the system named is CVA-21. Kind of data set: Anticoxsackieviral HI-HeLa Cell Culture Assay, CVA-21. Format: cell-based, Coxsackie strain A-21. Particulars: 24 h; CVA-21 infection of Hi-HeLa cells, XTT, one day. The method, then:
(§1) The ability of compounds to protect cells against CVA-21 or CVB-3 infection was measured by the XTT dye reduction method. Briefly, HI-HeLa cells were infected with CVA-21 or CVB-3 at a multiplicity of infection (m.o.i.) of 0.05 (CVA-21) and 0.08 (CVB-3) or mock-infected with medium only. Infected or uninfected cells were resuspended at 4×10^4 cells per mL and incubated with appropriate concentrations of drug. One day later, XTT/PMS was added to test plates, and the amount of formazan produced was quantified spectrophotometrically at 450/650 nm. The EC50 was calculated as the concentration of drug that increased the percentage of formazan production in drug-treated, virus-infected cells to 50% of that produced by drug-free, uninfected cells. The 50% cytotoxic dose (CC50) was calculated as the concentration of drug that decreased the percentage of formazan produced in drug-treated, uninfected cells to 50% of that produced in drug-free, uninfected cells. The therapeutic index (TI) was calculated by dividing the CC50 by the EC50.
(§2) The Coxsackie strains A-21 (CVA-21) and B-3 (CVB-3) were purchased from American Type Culture Collection (ATCC). Virus stocks were propagated and antiviral assays were performed in HI-HeLa cells (ATCC). Cells were grown in Minimal Essential Medium with 10% fetal bovine serum.

The nature of data set [2]: in vitro. The format is cell-based. Particulars: human, mrc5 cells. The method, then: (§3) The Echovirus strain 11 (ECHO-11) and Enterovirus strain 70 (ENT-70) were purchased from American Type Culture Collection (ATCC). Virus stocks were propagated and antiviral assays were performed in MRC5 cells (ATCC). Cells were grown in Minimal Essential Medium with 10% fetal bovine serum.
as §1, with “ECHO-11” for “CVA-21”, “ENT-70” for “CVB-3”, “MRC5” for “HI-HeLa”, “0.0013 (ECHO-11)” for “0.05 (CVA-21)”, “0.0017 (ENT-70)” for “0.08 (CVB-3)”, “2×10^4” for “4×10^4”

The subject of data set [3] is MRC5 cells. Kind of data set: in vitro. The format is cell-based. Conditions: human, mrc5 cells, 24 h. The protocol:
as §3
as §1, with “ECHO-11” for “CVA-21”, “ENT-70” for “CVB-3”, “MRC5” for “HI-HeLa”, “0.0013 (ECHO-11)” for “0.05 (CVA-21)”, “0.0017 (ENT-70)” for “0.08 (CVB-3)”, “2×10^4” for “4×10^4”

For data set [4], the system named is ENT-70. The experiment in a line: Enterovirus-70 MRC5 Cell Culture Assay. Format: cell-based, Enterovirus strain 70. Conditions: Enterovirus, 24 h; ENT-70 infection of MRC5 cells, XTT, one day. The method, then: as §3
as §1, with “ECHO-11” for “CVA-21”, “ENT-70” for “CVB-3”, “MRC5” for “HI-HeLa”, “0.0013 (ECHO-11)” for “0.05 (CVA-21)”, “0.0017 (ENT-70)” for “0.08 (CVB-3)”, “2×10^4” for “4×10^4”

Data set [5] deals with CVB-3. Kind of data set: Anticoxsackieviral HI-HeLa Cell Culture Assay, CVB-3. The format is cell-based, Coxsackie strain B-3. Conditions: 24 h; CVB-3 infection of Hi-HeLa cells, XTT, one day. The method, then:
as §1, §2
A general note: Tetrazolium dyes change colour on reduction, which living cells bring about.

Data set [6] has as its system HRV-14. Kind of data set: Antirhinoviral HI-HeLa Cell Culture Assay (cell protection, XTT), HRV-14. Format: cell-based, human rhinovirus. Particulars: for TI: CC50/EC50, HRV serotype-14, 2880 min; for EC50: Rhinovirus B, HRV14, 48 h, HRV serotype-14 infected HI-HeLa cells, XTT, two days. Summed up: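 Read-out is XTT/PMS formazan at 450/650 nm, measured two days after compound exposure of HI-HeLa cells (8×10^5 cells/mL) infected at m.o.i. 0.13 or mock-infected. EC50: protection to 50% of compound-free mock-infected signal; CC50: 50% loss in mock-infected cells; TI is their ratio.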

Data set [7] can be described thus: in vitro. The format is cell-based. Conditions: human, hi-hela cells. In short, it runs like this:
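HI-HeLa cells infected with HRV-14 at m.o.i. 0.13 or mock-infected, incubated with compounds for two days; XTT/PMS formazan read at 450/650 nm. EC50 as concentration restoring formazan to 50% of mock-infected level; CC50 from mock-infected cells; TI = CC50/EC50.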

Data set [8] has as its system ECHO-11. The experiment in a line: Echovirus-11 MRC5 Cell Culture Assay. The format is cell-based, Echovirus strain 11. Conditions: Echovirus, 24 h; ECHO-11 infection of MRC5 cells, XTT, one day. The protocol:
as §3
as §1, with “ECHO-11” for “CVA-21”, “ENT-70” for “CVB-3”, “MRC5” for “HI-HeLa”, “0.0013 (ECHO-11)” for “0.05 (CVA-21)”, “0.0017 (ENT-70)” for “0.08 (CVB-3)”, “2×10^4” for “4×10^4”

The nature of data set [9]: in vitro. The format is cell-based. Conditions: human, hi-hela cells. The protocol: as §1, §2
The source holds these as a separate data set.

The subject of data set [10] is HI-HeLa cells. Kind of data set: in vitro. The format is cell-based. Conditions: human, 24 h. The method, then: as §1, §2

What is called EC50 is the concentration giving half of the maximal effect. Low values mean higher potency in that assay, high ones lower potency in that assay. Broadly, the CC50 is the concentration giving 50% cytotoxicity. A lower CC50 goes with harm at low concentration. Consider `CCOC(=O)c1ccc(OCCC2CCN(c3ccc(C)nn3)CC2)cc1` [Pirodavir, reference compound], for which the EC50 in data set [1] is over 100 µM; in data set [4] it was over 100 µM; in data set [5], over 100 µM; in data set [6] it was 0.03 µM; in [8], over 100 µM. Moreover, the CC50 at 24 h in [2] and in data set [9] was over 100 µM throughout. The CC50 in data set [3] and in data set [10] was over 100 µM each time. The compound also came in with a TI in data set [6] of over 300. The compound also yielded a CC50 at 48 h in data set [7] of over 10 µM.
For the compound `Cc1cc(CCCCCOc2c(Cl)cc(C3=NCCO3)cc2Cl)on1` [WIN 54954, reference compound], the EC50 in [1] is over 100 µM; in data set [4] it was over 100 µM; in [5], over 100 µM; in data set [6], 2.13 µM; in [8], over 100 µM. The cytotoxic concentration (CC50) at 24 h in data set [2] and in data set [9] was over 100 µM throughout. In addition, the CC50 in data set [3] and in data set [10] was over 100 µM each time. In data set [6], this compound came in with a TI of over 30. Further, the CC50 at 48 h in [7] is over 63 µM.
